Data from patent US11999727B2 (Tango Therapeutics, Inc., priority 2020, dated 2024).
Like-named read-outs stand apart in the source and are kept apart here.

Columns and labels:
[1] = test system: HAP1 MTAP-intact cell line; assay: SDMA in-cell western assay, HAP1 MTAP-intact; format: cell-based; settings: Homo sapiens
Summary of the method: (§1)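 MTAP-null vs endogenous-MTAP HAP1 isogenic cells; in-cell western SDMA readout; IC50 per line.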

[2] = test system: HAP1 MTAP-deleted cell line; assay: Viability assay, MTAP-deleted cell line; format: cell-based; settings: Homo sapiens
From the text: Table 1 additionally indicates IC50 values in a viability assay for the MTAP-deleted cell line (column 10), indicating the effect of treatment with compound on cell survival.

[3] = target: T1, PRMT5 (Homo sapiens, UniProt O14744); assay: PRMT5 biochemical IC50 assay with SAM as cofactor; settings: PRMT5, SAM as cofactor; read-out: SAM IC50
T1 construct: purchased Viva (custom protein)

[4] = target: T1, PRMT5; assay: PRMT5 biochemical IC50 assay with no cofactor; settings: PRMT5, no cofactor; read-out: No Cofactor/rel IC50
From the text: Table 1 indicates IC50 values (μM) against PRMT5 for exemplary compounds in the presence of SAM as cofactor, with no cofactor, and with MTA as cofactor, respectively (columns 4-6). […] Ki values can be calculated from the IC50 values as described in the Examples section. As detailed in the Examples section, for the assay performed in the presence of SAM, IC50=Ki×1.5 (Ki=IC50/1.5).

[5] = test system: HAP1 MTAP-deleted cell line; assay: SDMA in-cell western assay, HAP1 MTAP-deleted; format: cell-based; settings: for IC50: Homo sapiens; for MTAP intact/deleted ratio: IC50 ratio HAP1 MTAP-intact vs HAP1 MTAP-deleted, SDMA in-cell western
Summary of the method: as §1

[6] = target: T1, PRMT5; assay: PRMT5 biochemical IC50 assay with MTA as cofactor; settings: PRMT5, MTA as cofactor; read-out: MTA IC50
[7] = HAP1, SDMA in-cell western, HAP1 MTAP-intact, read-out: MTAP HAP1 intact IC50
[8] = HAP1, viability assay, MTAP-deleted cell line, read-out: HAP1 MTAP deleted viability
[9] = HAP1, SDMA in-cell western, HAP1 MTAP-deleted, read-out: HAP1 MTAP deleted IC50

T1 sequence (O14744 whole entry): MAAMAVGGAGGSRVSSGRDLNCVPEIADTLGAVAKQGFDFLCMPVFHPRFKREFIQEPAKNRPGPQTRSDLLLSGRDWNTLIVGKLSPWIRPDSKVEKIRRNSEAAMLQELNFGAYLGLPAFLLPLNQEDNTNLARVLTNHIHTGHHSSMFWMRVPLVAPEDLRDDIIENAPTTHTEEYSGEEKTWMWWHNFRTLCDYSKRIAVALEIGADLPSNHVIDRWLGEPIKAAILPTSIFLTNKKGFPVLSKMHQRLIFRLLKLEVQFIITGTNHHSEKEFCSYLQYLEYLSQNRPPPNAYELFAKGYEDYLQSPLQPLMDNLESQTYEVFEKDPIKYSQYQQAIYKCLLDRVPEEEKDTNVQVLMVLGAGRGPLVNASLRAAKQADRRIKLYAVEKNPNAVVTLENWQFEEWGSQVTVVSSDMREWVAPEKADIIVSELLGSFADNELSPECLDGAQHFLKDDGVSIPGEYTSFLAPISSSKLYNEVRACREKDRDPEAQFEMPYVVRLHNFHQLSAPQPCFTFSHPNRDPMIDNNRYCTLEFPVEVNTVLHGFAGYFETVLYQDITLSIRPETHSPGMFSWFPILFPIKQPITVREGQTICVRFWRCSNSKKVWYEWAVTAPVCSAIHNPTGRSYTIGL
T1 sequence (Q9BQA1 whole entry partner): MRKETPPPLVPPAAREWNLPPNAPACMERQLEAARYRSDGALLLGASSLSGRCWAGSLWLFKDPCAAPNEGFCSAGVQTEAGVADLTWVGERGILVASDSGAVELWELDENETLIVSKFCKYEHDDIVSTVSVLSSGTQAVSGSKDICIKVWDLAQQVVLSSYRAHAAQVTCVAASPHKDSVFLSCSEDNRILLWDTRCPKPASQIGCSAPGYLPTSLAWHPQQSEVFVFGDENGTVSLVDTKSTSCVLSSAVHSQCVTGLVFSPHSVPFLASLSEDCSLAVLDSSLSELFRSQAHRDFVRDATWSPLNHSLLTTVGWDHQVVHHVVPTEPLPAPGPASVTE

SMILES	IC50 ([1]; HAP1, read-out: MTAP HAP1 intact IC50) [nM]	IC50 ([2]; HAP1, read-out: HAP1 MTAP deleted viability) [nM]	IC50 [3] [nM]	IC50 [4] [nM]	IC50 ([5]; HAP1, read-out: HAP1 MTAP deleted IC50) [nM]	MTAP intact/deleted ratio [5]	IC50 [6] [nM]	IC50 [1, 7] [nM]	IC50 [2, 8] [nM]	IC50 [5, 9] [nM]
C[C@H]1CC[C@H](c2ccc3sncc3c2)N(C(=O)C(=O)Nc2cnc(N)c(C3CC3)c2)C1 (single isomer, unassigned) [Compound 1153]	100 to 1000	< 1000	50 to 500	< 50	< 100	A (an IC50 ratio greater than or equal to 10 fold)	< 50			
C[C@H]1CC[C@H](c2ccc3sc(C4CCN(C)CC4)nc3c2)N(C(=O)C(=O)Nc2cnc(N)c([C@@H]3CCOC3)c2)C1 (single isomer, unassigned) [Compound 1154]			< 50	< 50		A (an IC50 ratio greater than or equal to 10 fold)	< 50	< 100	< 1000	< 100
C[C@@H]1CC[C@@H](c2ccc3nn(CCN(C)C)cc3c2)N(C(=O)C(=O)Nc2cnc(N)c(C3CC3)c2)C1 (single isomer, unassigned) [Compound 1156]			< 50	< 50		A (an IC50 ratio greater than or equal to 10 fold)	< 50	< 100	< 1000	< 100
Cc1cc(NC(=O)C(=O)N2C[C@@H](C)[C@@H](CC(C)C)C[C@@H]2c2ccc3scnc3c2)cnc1N (single isomer, unassigned) [Compound 1157]			> 500	> 500			> 500	> 1000	> 10000	> 1000
CO[C@@H]1C[C@@H](c2ccc3scnc3c2)N(C(=O)C(=O)Nc2cncc(C(N)=O)c2)C[C@@H]1C (single isomer, unassigned) [Compound 1161]			50 to 500	< 50		A (an IC50 ratio greater than or equal to 10 fold)	< 50	100 to 1000	< 1000	< 100
Cc1cc(NC(=O)C(=O)N2C[C@@H](C)CC[C@@H]2c2ccc3snc(C)c3c2)cnc1N (single isomer, unassigned) [Compound 1166]			50 to 500	< 50		B (an IC50 ratio greater than or equal to 3 fold but lower than 10 fold)	< 50	< 100	< 1000	< 100
Cc1nc2cc([C@@H]3CC[C@H](C)CN3C(=O)C(=O)Nc3cnc(N)c(C)c3)ccc2o1 (single isomer, unassigned) [Compound 1170]			50 to 500	< 50		A (an IC50 ratio greater than or equal to 10 fold)	< 50	100 to 1000	< 1000	< 100
CCc1cc(NC(=O)C(=O)N2[C@@H](C)CCC[C@H]2c2ccc3sc(C4CCN(C)CC4)nc3c2)cnc1N (single isomer, unassigned) [Compound 1173]			50 to 500	< 50		A (an IC50 ratio greater than or equal to 10 fold)	< 50	< 100	< 1000	< 100
COCCc1nc2cc([C@H]3CC[C@H](C)CN3C(=O)C(=O)Nc3cnc(N)c(C4CC4)c3)ccc2s1 (single isomer, unassigned) [Compound 1176]			> 500	> 500			> 500	> 1000	> 10000	> 1000
Cc1cc(NC(=O)C(=O)N2C[C@H](C)CC[C@H]2c2ccc3c(cnn3CCN(C)C)c2)cnc1N (single isomer, unassigned) [Compound 1182]			< 50	< 50		B (an IC50 ratio greater than or equal to 3 fold but lower than 10 fold)	< 50	< 100	< 1000	< 100
CCc1cc(NC(=O)C(=O)N2C[C@@H](C)CC[C@@H]2c2ccc3sc([C@H](C)N(C)C)nc3c2)cnc1N (single isomer, unassigned) [Compound 1188]			50 to 500	< 50		A (an IC50 ratio greater than or equal to 10 fold)	< 50	< 100	< 1000	< 100
Cc1cc(NC(=O)C(=O)N2C[C@H](C)[C@H](CC(C)C)C[C@H]2c2ccc3scnc3c2)cnc1N (single isomer, unassigned) [Compound 1190]			50 to 500	< 50		A (an IC50 ratio greater than or equal to 10 fold)	< 50	100 to 1000	< 1000	< 100
Cc1cc(NC(=O)C(=O)N2C[C@H](C)CC[C@H]2c2cc(F)c3[nH]ncc3c2)cnc1N (single isomer, unassigned) [Compound 1191]			> 500	> 500			> 500	> 1000	> 10000	> 1000
Cc1cc(NC(=O)C(=O)N2C[C@H](C)CC[C@H]2c2ccc(N3CCN(C)CC3)cc2)cnc1N (single isomer, unassigned) [Compound 1193]			> 500	> 500			> 500	> 1000	> 10000	> 1000
CCc1cc(NC(=O)C(=O)N2C[C@@H](C)CC[C@@H]2c2ccc3sc(CCN(C)C)nc3c2)cnc1N (single isomer, unassigned) [Compound 1196]			< 50	< 50		A (an IC50 ratio greater than or equal to 10 fold)	< 50	< 100	< 1000	< 100
CCc1cc(NC(=O)C(=O)N2C[C@@H](C)CC[C@@H]2c2ccc(N3CC[C@H]4CCN(C)C[C@H]4C3)cc2)cnc1N (single isomer, unassigned) [Compound 1204]			50 to 500	< 50		A (an IC50 ratio greater than or equal to 10 fold)	< 50	100 to 1000	< 1000	< 100
C[C@H]1CC[C@H](c2ccc3cncn3c2)N(C(=O)C(=O)Nc2cnc(N)c(C3CC3)c2)C1 (single isomer, unassigned) [Compound 1205, N-(6-amino-5-cyclopropylpyridin-3-yl)-2-(2-(imidazo[1,5-a]pyridin-6-yl)-5-methylpiperidin-1-yl)-2-oxoacetamide]			< 50	< 50		A (an IC50 ratio greater than or equal to 10 fold)	< 50	100 to 1000	< 1000	< 100
C[C@H]1CN(C(=O)C(=O)Nc2cnc(N)c(C3CC3)c2)[C@H](c2ccc3scnc3c2)CC1(F)F (single isomer, unassigned) [Compound 1207]			50 to 500	50 to 500		A (an IC50 ratio greater than or equal to 10 fold)	50 to 500	100 to 1000	< 1000	< 100
CCc1cc(NC(=O)C(=O)N2C[C@@H](C)CC[C@@H]2c2ccc(N3CCN(C(C)C)CC3)cc2)cnc1N (single isomer, unassigned) [Compound 1208]			50 to 500	< 50		A (an IC50 ratio greater than or equal to 10 fold)	< 50	100 to 1000	< 1000	< 100
